Results: patent US9604946B2, “Methods for modulating bacterial virulence and related compounds” (priority 2013, dated 2017)

Key:
[1] = tested on: S. Typhimurium; experiment: S. Typhimurium replication in J774 macrophages with and without compound; type: cell-based; details: 500 and 5 nM compound
Description: Compounds CF325, CF326, CF327, CF329, CF330, CF331, CF332, CF333, CF334, CF338, CF339, CF340, CF341, CF342, CF343, CF344, CF345, CF349, CF350, CF351, and CF352 were screened by measuring the inhibition of S. Typhimurium replication in the presence (500 and 5 nM) and absence of the compound with J774 macrophage or using a qRT PCR study comparing the levels of gene expression in the presence of 5 and 500 nM concentrations of the target compound. Compounds CF331, CF338, CF340, CF341 and CF345 were also screened using a fluorescein actin staining test to determine the number of HeLa cells infected by measuring the inhibition of AE lesion formation.

[2] = tested on: EHEC; experiment: qRT-PCR of gene expression in EHEC as change from wild-type expression; type: cell-based, enterohemorrhagic E. coli; details: 5 and 500 nM compound
[3] = tested on: A. baumannii; experiment: Biofilm formation by A. baumannii; type: cell-based, Acinetobacter baumannii; details: acts through QseC
[4] = biological target: QseC (Escherichia coli O157:H7, UniProt Q8X524); details: earlier work, U.S. Pat. No. 8,252,841; Clarke et al., 2006; Rasko et al., 2008; cited from earlier work
Chain of QseC (Q8X524 whole entry): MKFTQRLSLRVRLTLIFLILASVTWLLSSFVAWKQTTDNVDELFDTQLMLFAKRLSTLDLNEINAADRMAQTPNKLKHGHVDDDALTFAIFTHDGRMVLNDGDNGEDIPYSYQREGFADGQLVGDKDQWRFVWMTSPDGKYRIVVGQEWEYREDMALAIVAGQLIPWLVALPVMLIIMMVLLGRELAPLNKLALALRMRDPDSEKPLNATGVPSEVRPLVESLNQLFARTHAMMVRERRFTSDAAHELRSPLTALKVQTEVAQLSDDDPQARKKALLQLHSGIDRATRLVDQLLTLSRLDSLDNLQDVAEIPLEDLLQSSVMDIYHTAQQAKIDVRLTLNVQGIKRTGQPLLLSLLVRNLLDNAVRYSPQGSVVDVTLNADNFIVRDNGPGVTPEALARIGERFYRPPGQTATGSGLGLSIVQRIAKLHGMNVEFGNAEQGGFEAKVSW

| Structure (SMILES) | modulation of S. Typhimurium virulence (intra J774 macrophage replication) [1] | activity on virulence of EHEC (gene expression level by qRT-PCR) [2] | further results |
| --- | --- | --- | --- |
| COc1cccc(OC)c1C(=O)Nc1nccs1 [CF332] | showed little modulation of the virulence of S. Typhimurium | – | – |
| O=C(Nc1nccs1)c1c(F)cc(F)cc1F [CF325] | showed potency in preventing S. Typhimurium virulence | – | – |
| CC12CC3CC(C)(C1)CC(C(=O)Nc1nc(C#N)cs1)(C3)C2 [CF352] | – | antagonist activity against the virulence of EHEC | – |
| Cc1ccc(N(CC2=NCCN2)c2cccc(O)c2)cc1 [phentolamine] | – | – | inhibition of biofilm formation [3]: inhibited; block of QseC response to the signal [4]: block this response |
| O=S(=O)(Nc1ccccc1)c1ccc(NC(=S)Nc2ccccc2)cc1 [LED209] | – | – | block of QseC response to the signal [4]: can block the QseC response to the signal |
| CC12CC3CC(C)(C1)CC(C(=O)Nc1ncco1)(C3)C2 [CF349] | – | acted as agonist of virulence | – |
| CC(=O)Nc1nccs1 [CF327] | showed little modulation of the virulence of S. Typhimurium | acted as agonist of virulence | – |
| CC12CC3CC(C)(C1)CC(C(=O)Nc1ncc(F)s1)(C3)C2 [CF354] | – | antagonist activity against the virulence of EHEC | – |
| COc1ccc(C(=O)Nc2ncc[nH]2)c(OC)c1 [CF330] | – | acted as agonist of virulence | – |
| CCOC(=O)c1csc(NC(=O)C23CC4CC(C)(CC(C)(C4)C2)C3)n1 [CF351] | – | acted as agonist of virulence | – |
| COc1ccc(C(=O)Nc2nccs2)c(OC)c1 [CF326] | showed potency in preventing S. Typhimurium virulence | antagonist activity against the virulence of EHEC | – |
| O=C(Nc1nccs1)C12CC3CC(CC(C3)C1)C2 [CF331] | – | antagonist activity against the virulence of EHEC | rank of modulation of bacterial virulence among the EHEC antagonist compounds [2]: greatest modulation of bacterial virulence |
| COc1ccc(C(=O)Nc2nc(-c3ccc(C)cc3)cs2)c(OC)c1 [CF329] | showed little modulation of the virulence of S. Typhimurium | antagonist activity against the virulence of EHEC | – |
| O=C(Nc1nccs1)c1c(Cl)cc(Cl)cc1Cl [CF334] | – | acted as agonist of virulence | – |
| CC12CC3CC(C)(C1)CC(C(=O)Nc1nccs1)(C3)C2 [CF345] | – | antagonist activity against the virulence of EHEC | rank of modulation of bacterial virulence among the EHEC antagonist compounds [2]: greatest modulation of bacterial virulence |
| COc1ccc(C(=O)Nc2nc(C)c(C)s2)c(OC)c1 [CF333] | – | antagonist activity against the virulence of EHEC | – |
